# Measurements: publication PMC5218480 (PLoS ONE, 2017)
# Test system: MV-4-11 cells
# Assay: Gene expression microarray analysis (Affymetrix PrimeView) and GSEA
# Assay type: cell-based, human
# Design: RFU PODN (11730768_x_at) / Fold change /veh PODN (11730768_x_at) / RFU LINC00158 (11744669_a_at) / Fold change /veh LINC00158 (11744669_a_at) / RFU DUSP10 (11751237_a_at) / Fold change /veh DUSP10 (11751237_a_at) / RFU ID3 (11757404_x_at) / Fold change /veh ID3 (11757404_x_at) / RFU PLEKHG5 (11737974_s_at) / Fold change /veh PLEKHG5 (11737974_s_at) / RFU LRRC4B (11730491_at) / Fold change /veh LRRC4B (11730491_at) / RFU GIMAP4 (11747438_a_at) / Fold change /veh GIMAP4 (11747438_a_at) / RFU KRT8 (11758183_x_at) / Fold change /veh KRT8 (11758183_x_at) / RFU CNN1 (11734310_a_at) / Fold change /veh CNN1 (11734310_a_at) / RFU VPS37D (11726825_at) / Fold change /veh VPS37D (11726825_at) / RFU C10orf10 (11716522_x_at) / Fold change /veh C10orf10 (11716522_x_at) / RFU KIR2DL2 /// KIR2DL4 /// KIR2DL5A /// KIR2DL5B /// KIR2DS1 /// KIR2DS2 /// KIR2DS3 /// KIR2DS4 /// KIR3DL3 /// KIR3DL3 /// KIR3DS1 (11738374_at) / Fold change /veh KIR2DL2 /// KIR2DL4 /// KIR2DL5A /// KIR2DL5B /// KIR2DS1 /// KIR2DS2 /// KIR2DS3 /// KIR2DS4 /// KIR3DL3 /// KIR3DL3 /// KIR3DS1 (11738374_at) / RFU C1QL1 (11718748_at) / Fold change /veh C1QL1 (11718748_at) / RFU TMPRSS4 (11747572_a_at) / Fold change /veh TMPRSS4 (11747572_a_at) / RFU HAMP (11756126_x_at) / Fold change /veh HAMP (11756126_x_at) / RFU RNFT2 (11725882_a_at) / Fold change /veh RNFT2 (11725882_a_at) / RFU NR4A2 (11747474_a_at) / Fold change /veh NR4A2 (11747474_a_at) / RFU ABCC12 (11746883_a_at) / Fold change /veh ABCC12 (11746883_a_at) / RFU TMEM136 (11760407_x_at) / Fold change /veh TMEM136 (11760407_x_at) / RFU CLDN22 /// WWC2 (11732394_at) / Fold change /veh CLDN22 /// WWC2 (11732394_at) / RFU HLA-DPB1 (11760878_x_at) / Fold change /veh HLA-DPB1 (11760878_x_at) / RFU SPINT1 (11716480_a_at) / Fold change /veh SPINT1 (11716480_a_at) / RFU GAP43 (11754022_s_at) / Fold change /veh GAP43 (11754022_s_at) / RFU A4GNT (11735810_at) / Fold change /veh A4GNT (11735810_at) / RFU PRB3 (11715151_x_at) / Fold change /veh PRB3 (11715151_x_at) / RFU TUBB4B (11761932_at) / Fold change /veh TUBB4B (11761932_at) / RFU CAPN14 (11732068_a_at) / Fold change /veh CAPN14 (11732068_a_at) / RFU TMCC2 (11721928_a_at) / Fold change /veh TMCC2 (11721928_a_at) / RFU IRGQ (11745062_a_at) / Fold change /veh IRGQ (11745062_a_at) / RFU FAM174B (11720279_a_at) / Fold change /veh FAM174B (11720279_a_at) / RFU TMPRSS4 (11748680_a_at) / Fold change /veh TMPRSS4 (11748680_a_at) / RFU FAM212B (11763350_a_at) / Fold change /veh FAM212B (11763350_a_at) / RFU PLEKHG5 (11743358_a_at) / Fold change /veh PLEKHG5 (11743358_a_at) / RFU ZSCAN30 (11745921_a_at) / Fold change /veh ZSCAN30 (11745921_a_at) / RFU CMKLR1 (11741424_a_at) / Fold change /veh CMKLR1 (11741424_a_at) / RFU LOC101060620 /// MAPK8IP1 (11723275_at) / Fold change /veh LOC101060620 /// MAPK8IP1 (11723275_at) / RFU SPTSSB (11747773_x_at) / Fold change /veh SPTSSB (11747773_x_at) / RFU PRSS12 (11739890_at) / Fold change /veh PRSS12 (11739890_at) / RFU BIN1 (11741810_x_at) / Fold change /veh BIN1 (11741810_x_at) / RFU WNT11 (11732464_a_at) / Fold change /veh WNT11 (11732464_a_at) / RFU C10orf10 (11716521_a_at) / Fold change /veh C10orf10 (11716521_a_at) / RFU C5orf56 (11738089_at) / Fold change /veh C5orf56 (11738089_at) / RFU CYB561 (11721691_x_at) / Fold change /veh CYB561 (11721691_x_at) / RFU ANKRD19P (11752326_a_at) / Fold change /veh ANKRD19P (11752326_a_at) / RFU OR2T12 /// OR2T33 /// OR2T8 (11738714_s_at) / Fold change /veh OR2T12 /// OR2T33 /// OR2T8 (11738714_s_at) / RFU VCAN (11748164_a_at) / Fold change /veh VCAN (11748164_a_at) / RFU JSRP1 (11732532_at) / Fold change /veh JSRP1 (11732532_at) / RFU KRTAP10-11 (11738290_x_at) / Fold change /veh KRTAP10-11 (11738290_x_at) / RFU MYO3A (11730013_a_at) / Fold change /veh MYO3A (11730013_a_at) / RFU EBF3 (11725865_a_at) / Fold change /veh EBF3 (11725865_a_at) / RFU CAMK2N1 (11719241_x_at) / Fold change /veh CAMK2N1 (11719241_x_at) / RFU C5orf56 (11738088_a_at) / Fold change /veh C5orf56 (11738088_a_at) / RFU OLFML3 (11715873_a_at) / Fold change /veh OLFML3 (11715873_a_at) / RFU LOC100653217 /// NTM (11731650_a_at) / Fold change /veh LOC100653217 /// NTM (11731650_a_at) / RFU MAPK11 (11762145_a_at) / Fold change /veh MAPK11 (11762145_a_at) / RFU FIZ1 (11724087_x_at) / Fold change /veh FIZ1 (11724087_x_at) / RFU OASL (11726364_x_at) / Fold change /veh OASL (11726364_x_at) / RFU SOX15 (11748057_x_at) / Fold change /veh SOX15 (11748057_x_at) / RFU CD79A (11719716_a_at) / Fold change /veh CD79A (11719716_a_at) / RFU HIST1H1D (11736915_at) / Fold change /veh HIST1H1D (11736915_at) / RFU CASKIN2 (11723855_a_at) / Fold change /veh CASKIN2 (11723855_a_at) / RFU LOC730098 (11760151_x_at) / Fold change /veh LOC730098 (11760151_x_at) / RFU OR4N2 (11742367_at) / Fold change /veh OR4N2 (11742367_at) / RFU PRRT2 (11749266_a_at) / Fold change /veh PRRT2 (11749266_a_at) / RFU SNX32 (11753110_a_at) / Fold change /veh SNX32 (11753110_a_at) / RFU CDHR5 (11726645_a_at) / Fold change /veh CDHR5 (11726645_a_at) / RFU RCAN1 (11760418_a_at) / Fold change /veh RCAN1 (11760418_a_at) / RFU FAM167A (11723789_a_at) / Fold change /veh FAM167A (11723789_a_at) / RFU FAM26E (11764081_at) / Fold change /veh FAM26E (11764081_at) / RFU ISYNA1 (11749810_s_at) / Fold change /veh ISYNA1 (11749810_s_at) / RFU ACY1 (11761880_at) / Fold change /veh ACY1 (11761880_at) / RFU 11764098_at / Fold change /veh 11764098_at / RFU SAMD14 (11745864_x_at) / Fold change /veh SAMD14 (11745864_x_at) / RFU NPB (11741838_a_at) / Fold change /veh NPB (11741838_a_at) / RFU TMPRSS6 (11731388_a_at) / Fold change /veh TMPRSS6 (11731388_a_at) / RFU KRTAP10-2 (11738614_at) / Fold change /veh KRTAP10-2 (11738614_at) / RFU ARHGAP8 /// PRR5-ARHGAP8 (11727945_x_at) / Fold change /veh ARHGAP8 /// PRR5-ARHGAP8 (11727945_x_at) / RFU KRTAP5-7 /// NADSYN1 (11734609_at) / Fold change /veh KRTAP5-7 /// NADSYN1 (11734609_at) / RFU RASL12 (11751679_a_at) / Fold change /veh RASL12 (11751679_a_at) / RFU CDKN2B (11736163_a_at) / Fold change /veh CDKN2B (11736163_a_at) / RFU PRF1 (11729649_at) / Fold change /veh PRF1 (11729649_at) / RFU, ZNF638 /// ZNF638-IT1 / Fold change vs veh, ZNF638 /// ZNF638-IT1 / RFU, PANK3 / Fold change vs veh, PANK3 / RFU, SH3YL1 / Fold change vs veh, SH3YL1 / RFU, ZEB2 / Fold change vs veh, ZEB2 / RFU, NRIP1 / Fold change vs veh, NRIP1 / RFU, PTTG1IP / Fold change vs veh, PTTG1IP / RFU, CAPN2 / Fold change vs veh, CAPN2 / RFU, MED14 / Fold change vs veh, MED14 / RFU, SNORA58 / Fold change vs veh, SNORA58 / RFU, C1orf63 / Fold change vs veh, C1orf63 / RFU, LRRFIP1 / Fold change vs veh, LRRFIP1 / RFU, NDUFAF7 / Fold change vs veh, NDUFAF7 / RFU, SLC12A2 / Fold change vs veh, SLC12A2 / RFU, IBTK / Fold change vs veh, IBTK / RFU, ESF1 / Fold change vs veh, ESF1 / Fold change vs veh, TMEM50B / RFU, TAOK1 / Fold change vs veh, TAOK1 / RFU, ACBD3 / Fold change vs veh, ACBD3 / RFU, TMA16 / Fold change vs veh, TMA16 / RFU, RWDD3 / Fold change vs veh, RWDD3 / RFU, BCAT1 / Fold change vs veh, BCAT1 / RFU, EDEM3 / Fold change vs veh, EDEM3 / RFU, TMEM33 / Fold change vs veh, TMEM33 / RFU, WDR75 / Fold change vs veh, WDR75 / RFU, AHCTF1 / Fold change vs veh, AHCTF1 / RFU, TFRC / Fold change vs veh, TFRC / RFU, ZDHHC17 / Fold change vs veh, ZDHHC17 / RFU, NOM1 / Fold change vs veh, NOM1 / RFU, ARL8B / Fold change vs veh, ARL8B / RFU, ZBTB11 / Fold change vs veh, ZBTB11 / RFU, TAMM41 / Fold change vs veh, TAMM41 / RFU, KIAA1704 /// LOC100996395 / Fold change vs veh, KIAA1704 /// LOC100996395 / RFU, ING1 / Fold change vs veh, ING1 / RFU, TRMT61B / Fold change vs veh, TRMT61B / RFU, FUBP3 / Fold change vs veh, FUBP3 / RFU, TP53 / Fold change vs veh, TP53 / RFU, TNKS2 / Fold change vs veh, TNKS2 / RFU, ZFP14 / Fold change vs veh, ZFP14 / RFU, ACTR2 / Fold change vs veh, ACTR2 / RFU, PPP3R1 / Fold change vs veh, PPP3R1 / RFU, PIK3R1 / Fold change vs veh, PIK3R1 / RFU, HNRNPA1 / Fold change vs veh, HNRNPA1 / RFU, RNF170 / Fold change vs veh, RNF170 / RFU, ZNF28 / Fold change vs veh, ZNF28 / RFU, RNGTT / Fold change vs veh, RNGTT / RFU, OGT / Fold change vs veh, OGT / RFU, BRD1 / Fold change vs veh, BRD1 / RFU, MARS / Fold change vs veh, MARS / RFU, ZNF655 / Fold change vs veh, ZNF655 / RFU, FAHD1 / Fold change vs veh, FAHD1 / RFU, BDP1 / Fold change vs veh, BDP1 / RFU, LRRCC1 / Fold change vs veh, LRRCC1 / RFU, ARID1A / Fold change vs veh, ARID1A / RFU, ZNF146 / Fold change vs veh, ZNF146 / RFU, ZNF330 / Fold change vs veh, ZNF330 / RFU, GPN3 / Fold change vs veh, GPN3 / RFU, C9orf123 / Fold change vs veh, C9orf123 / RFU, N4BP2L2 / Fold change vs veh, N4BP2L2 / RFU, ARFIP1 / Fold change vs veh, ARFIP1 / RFU, FAM179B / Fold change vs veh, FAM179B / RFU, BCL10 / Fold change vs veh, BCL10 / RFU, UHRF1BP1L / Fold change vs veh, UHRF1BP1L / RFU, BET1 / Fold change vs veh, BET1 / RFU, CNOT2 / Fold change vs veh, CNOT2 / RFU, ZNF268 / Fold change vs veh, ZNF268 / Fold change vs veh, ZNF507 / RFU, DGCR2 / Fold change vs veh, DGCR2 / RFU, WDSUB1 / Fold change vs veh, WDSUB1 / Fold change vs veh, HSP90B1 /// MIR3652 / RFU, ADSS / Fold change vs veh, ADSS / RFU, GK / Fold change vs veh, GK / RFU, ZNF148 / Fold change vs veh, ZNF148 / RFU, TAF9 / Fold change vs veh, TAF9 / RFU, SLC1A5 / Fold change vs veh, SLC1A5 / RFU, SLMO2 / Fold change vs veh, SLMO2 / RFU, ABCC4 / Fold change vs veh, ABCC4 / RFU, LOC101060439 /// RAP1B / Fold change vs veh, LOC101060439 /// RAP1B / RFU, RFX7 / Fold change vs veh, RFX7 / RFU, GTPBP10 / Fold change vs veh, GTPBP10 / RFU, CNEP1R1 / Fold change vs veh, CNEP1R1 / RFU, BIVM-ERCC5 /// ERCC5 / Fold change vs veh, BIVM-ERCC5 /// ERCC5 / RFU, ILF3 / Fold change vs veh, ILF3 / RFU 11762660_at / Fold change /veh 11762660_at / RFU VCAN (11757783_s_at) / Fold change /veh VCAN (11757783_s_at) / RFU DDX43 (11728927_at) / Fold change /veh DDX43 (11728927_at) / RFU KRT8 (11758188_x_at) / Fold change /veh KRT8 (11758188_x_at) / RFU NKD1 (11759106_at) / Fold change /veh NKD1 (11759106_at) / RFU SRD5A1 (11742802_a_at) / Fold change /veh SRD5A1 (11742802_a_at) / RFU TPSAB1 /// TPSB2 (11721975_s_at) / Fold change /veh TPSAB1 /// TPSB2 (11721975_s_at) / RFU GSTM3 (11746129_a_at) / Fold change /veh GSTM3 (11746129_a_at) / RFU IL23R (11737362_x_at) / Fold change /veh IL23R (11737362_x_at) / RFU TMEM51 (11727254_a_at) / Fold change /veh TMEM51 (11727254_a_at) / RFU PIWIL2 (11732686_x_at) / Fold change /veh PIWIL2 (11732686_x_at) / RFU ORM1 (11744905_x_at) / Fold change /veh ORM1 (11744905_x_at) / RFU CCDC152 (11743942_at) / Fold change /veh CCDC152 (11743942_at) / RFU ECM1 (11717891_a_at) / Fold change /veh ECM1 (11717891_a_at) / RFU IL23R (11748794_a_at) / Fold change /veh IL23R (11748794_a_at) / RFU TNFAIP8L3 (11732012_x_at) / Fold change /veh TNFAIP8L3 (11732012_x_at) / RFU MBOAT4 (11741988_at) / Fold change /veh MBOAT4 (11741988_at) / RFU 11764193_at / Fold change /veh 11764193_at / RFU TMEM53 (11763286_at) / Fold change /veh TMEM53 (11763286_at) / RFU MAGEB2 (11727129_at) / Fold change /veh MAGEB2 (11727129_at) / RFU TMEM200A (11744735_a_at) / Fold change /veh TMEM200A (11744735_a_at) / RFU CCDC152 (11751479_a_at) / Fold change /veh CCDC152 (11751479_a_at) / RFU FAM211A (11726209_a_at) / Fold change /veh FAM211A (11726209_a_at) / RFU RGS16 (11746705_a_at) / Fold change /veh RGS16 (11746705_a_at) / RFU VCAN (11755009_s_at) / Fold change /veh VCAN (11755009_s_at) / RFU RHOB (11743442_s_at) / Fold change /veh RHOB (11743442_s_at) / RFU RGS16 (11720943_a_at) / Fold change /veh RGS16 (11720943_a_at) / RFU RGS16 (11720944_at) / Fold change /veh RGS16 (11720944_at) / RFU, VPS4B / Fold change vs veh, VPS4B / RFU, CREB1 / Fold change vs veh, CREB1 / RFU, DNAJC13 / Fold change vs veh, DNAJC13 / RFU, GNAQ / Fold change vs veh, GNAQ / RFU, CDK5R1 / Fold change vs veh, CDK5R1 / RFU, ZRANB3 / Fold change vs veh, ZRANB3 / RFU, CUL4A / Fold change vs veh, CUL4A / RFU, CCNY / Fold change vs veh, CCNY / RFU, UFL1 / Fold change vs veh, UFL1 / RFU, COG3 / Fold change vs veh, COG3 / RFU, DIAPH2 / Fold change vs veh, DIAPH2 / RFU, SKA2 / Fold change vs veh, SKA2 / RFU, AFF3 / Fold change vs veh, AFF3 / RFU, LMF1 / Fold change vs veh, LMF1 / RFU, IPO11 / Fold change vs veh, IPO11 / RFU, DFFB / Fold change vs veh, DFFB / RFU, FOXP1 / Fold change vs veh, FOXP1 / RFU, CARD8 / Fold change vs veh, CARD8 / RFU, STRN3 / Fold change vs veh, STRN3 / RFU, ADK / Fold change vs veh, ADK / RFU, RASSF2 / Fold change vs veh, RASSF2 / RFU, WIPF1 / Fold change vs veh, WIPF1 / RFU, LARP1B / Fold change vs veh, LARP1B / RFU, RASA1 / Fold change vs veh, RASA1 / RFU, RB1 / Fold change vs veh, RB1 / RFU, PPFIA1 / Fold change vs veh, PPFIA1 / RFU, MAT2A / Fold change vs veh, MAT2A / RFU, CCT5 / Fold change vs veh, CCT5 / RFU, WDR92 / Fold change vs veh, WDR92 / RFU, CUX1 / Fold change vs veh, CUX1 / RFU, TTC7A / Fold change vs veh, TTC7A / RFU, TMEM135 / Fold change vs veh, TMEM135 / RFU, DEPTOR / Fold change vs veh, DEPTOR / RFU, CPM / Fold change vs veh, CPM / RFU, DNAJB6 / Fold change vs veh, DNAJB6 / RFU, CACNA2D3 / Fold change vs veh, CACNA2D3 / RFU, DTX4 / Fold change vs veh, DTX4 / RFU, TFCP2 / Fold change vs veh, TFCP2 / RFU, GMCL1 /// GMCL1P1 / Fold change vs veh, GMCL1 /// GMCL1P1 / RFU, AEBP2 / Fold change vs veh, AEBP2 / RFU, SNHG1 /// SNORD22 /// SNORD25 /// SNORD26 /// SNORD27 /// SNORD28 /// SNORD29 /// SNORD31 / Fold change vs veh, SNHG1 /// SNORD22 /// SNORD25 /// SNORD26 /// SNORD27 /// SNORD28 /// SNORD29 /// SNORD31 / Fold change (Aza/veh), C12orf56 (ProbeSet 11735607_a_at) / Fold change (ACY-1035/veh), C12orf56 (ProbeSet 11735607_a_at) / Fold change (Aza/veh), FGFR1OP (ProbeSet 11751329_s_at) / Fold change (ACY-1035/veh), FGFR1OP (ProbeSet 11751329_s_at) / Fold change (Aza/veh), VPS36 (ProbeSet 11739960_a_at) / Fold change (ACY-1035/veh), VPS36 (ProbeSet 11739960_a_at) / RFU SYPL1 (11715823_x_at) / Fold change /veh SYPL1 (11715823_x_at) / RFU IGFBP7 (11715501_s_at) / Fold change /veh IGFBP7 (11715501_s_at) / RFU REEP3 (11722064_at) / Fold change /veh REEP3 (11722064_at) / RFU IGLL1 (11728026_x_at) / Fold change /veh IGLL1 (11728026_x_at): dose or concentration left out as unconfirmed
# Conditions: ProbeSet 11730252_s_at; LIST B
smiles,measurement,value
Nc1ccc(-c2cccs2)cc1NC(=O)c1ccc2c(c1)cc(C1CC1)n2CCN1CCOCC1 [ACY-1035],"Fold change vs veh, AHCTF1",0.96
